Data taken from the supplement of paper PMC11061612.

Assays:
Assay in all cases: Bliss excess, mean over the matrix (fraction); higher = more synergy
[1] = system: PCI-30 (Head and Neck Carcinoma)
How it was run: (§1)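 Cell lines in DMEM/F12 or RPMI with 10% FBS were plated in 1536-well plates, held 24 hours at 37°C, 5% CO2, then given two-drug dose matrices for 72 hours (DMSO typically 0.2%). Viability was read by CellTiter-Glo 2.0 luminescence and scaled as inhibition from 0 (vehicle wells) to 1 (blank wells). Combination Emax is the second-highest inhibition in the matrix; Bliss excess is observed combination effect minus expected EA + EB − EA·EB, EA and EB being single-agent effects.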

[2] = system: NCI-H2795 (Mesothelioma)
How it was run: as §1

[3] = system: EN (Endometrial Carcinoma)
How it was run: as §1

[4] = system: KYSE-410 (Esophageal Squamous Cell Carcinoma)
How it was run: as §1

[5] = system: CAPAN-1 (Pancreatic Carcinoma)
How it was run: as §1

[6] = system: SW626 (Colorectal Carcinoma)
How it was run: as §1

[7] = system: CAL-54 (Kidney Carcinoma)
How it was run: as §1

[8] = system: SH-4 (Melanoma)
How it was run: as §1

[9] = system: LB771-HNC (Head and Neck Carcinoma)
How it was run: as §1

[10] = system: SK-OV-3 (Ovarian Carcinoma)
How it was run: as §1

[11] = system: RPMI-6666 (Non-Cancerous)
How it was run: as §1

[12] = system: SW1271 (Small Cell Lung Carcinoma)
How it was run: as §1

[13] = system: NCI-H747 (Colorectal Carcinoma)
How it was run: as §1

[14] = system: KARPAS-231 (B-Cell Non-Hodgkin's Lymphoma)
How it was run: as §1

[15] = system: COLO-829 (Melanoma)
How it was run: as §1

[16] = system: NCI-H69 (Small Cell Lung Carcinoma)
How it was run: as §1

[17] = system: CAL-51 (Breast Carcinoma)
How it was run: as §1

[18] = system: MDA-MB-468 (Breast Carcinoma)
How it was run: as §1

[19] = system: 8305C (Thyroid Gland Carcinoma)
How it was run: as §1

[20] = system: CTB-1 (B-Cell Non-Hodgkin's Lymphoma)
How it was run: as §1

Row | SMILES | Bliss excess [1] | Bliss excess [2] | Bliss excess [3] | Bliss excess [4] | Bliss excess [5] | Bliss excess [6] | Bliss excess [7] | Bliss excess [8] | Bliss excess [9] | Bliss excess [10] | Bliss excess [11] | Bliss excess [12] | Bliss excess [13] | Bliss excess [14] | Bliss excess [15] | Bliss excess [16] | Bliss excess [17] | Bliss excess [18] | Bliss excess [19] | Bliss excess [20]
1 | NC1(C(=O)N[C@@H](CCO)c2ccc(Cl)cc2)CCN(c2ncnc3[nH]ccc23)CC1 [Capivasertib] + C[C@@H]1COCCN1C2=NC(=NC(=C2)C3(CC3)[S@](=N)(=O)C)C4=C5C=CNC5=NC=C4 [AZD6738] (first compound max 10 µM, 7x7, partner max 10 µM) | -0.0582 | -0.0197 | -0.039 | -0.0369 | -0.0423 | -0.0622 | -0.0374 | -0.036 | -0.0503 | -0.0456 | -0.118 | -0.0657 | -0.0316 | -0.0334 | 0.0403 | -0.0397 | -0.0096 | -0.0652 | -0.0308 | –
2 | NC1(C(=O)N[C@@H](CCO)c2ccc(Cl)cc2)CCN(c2ncnc3[nH]ccc23)CC1 [Capivasertib] + CCN(CCO)CCCOc1ccc2c(Nc3cc(CC(=O)Nc4cccc(F)c4)[nH]n3)ncnc2c1 [AZD2811] (first compound max 10 µM, 7x7, partner max 1 µM) | -0.0595 | 0.0267 | -0.0464 | -0.0104 | -0.0486 | -0.0338 | -0.0357 | -0.0507 | -0.0549 | -0.0301 | -0.133 | -0.0113 | -0.0255 | -0.111 | 0.0142 | 0.0132 | 0.0519 | -0.063 | 0.0022 | –
3 | NC1(C(=O)N[C@@H](CCO)c2ccc(Cl)cc2)CCN(c2ncnc3[nH]ccc23)CC1 [Capivasertib] + CC(C)n1c(=O)n(C)c2cnc3cc(F)c(-c4ccc(OCCCN5CCCCC5)nc4)cc3c21 [AZD1390] (first compound max 10 µM, 7x7, partner max 0.3 µM) | -0.0488 | -0.0483 | -0.0625 | -0.0795 | -0.0812 | -0.0828 | -0.0687 | -0.0856 | -0.0687 | -0.0754 | -0.08 | -0.0347 | -0.0791 | -0.0035 | -0.126 | -0.0793 | -0.0972 | -0.0464 | -0.0773 | –
4 | CN(C)CCCOc1ccc(-c2ccc3ncc4c(c3c2)n(C2CCOCC2)c(=O)n4C)cn1 [AZD0156] + O=C(c1cc(Cc2n[nH]c(=O)c3ccccc23)ccc1F)N1CCN(C(=O)C2CC2)CC1 [Olaparib] (first compound max 3 µM, partner max 3 µM) | -0.0129 | 0.0432 | -0.0292 | 0.0007 | -0.0864 | -0.0326 | 0.034 | 0.0237 | 0.033 | -0.0179 | 0.119 | 0.0098 | -0.0461 | 0.0651 | -0.0578 | 0.0386 | 0.051 | 0.0645 | -0.014 | –
5 | CC(=O)c1c(C)c2cnc(Nc3ccc(N4CCNCC4)cn3)nc2n(C2CCCC2)c1=O [Palbociclib] + Cn1cnc2c(F)c(Nc3ccc(Br)cc3Cl)c(C(=O)NOCCO)cc21 [Selumetinib] (first compound max 10 µM, 7x7, partner max 10 µM) | -0.0814 | -0.0173 | -0.0205 | 0.0141 | -0.0741 | -0.057 | -0.0125 | 0.0333 | -0.0893 | -0.0419 | -0.0324 | -0.0417 | -0.0022 | -0.134 | -0.0772 | -0.0071 | 0.0035 | -0.0555 | 0.0123 | –
6 | CC(=O)c1c(C)c2cnc(Nc3ccc(N4CCNCC4)cn3)nc2n(C2CCCC2)c1=O [Palbociclib] + Cc1c2c(nn1C)CSCc1cc(n(C)n1)CSc1cc(c3ccccc3c1)OCCCc1c(C(=O)O)n(C)c3c-2c(Cl)ccc13 [AZD5991] (first compound max 10 µM, 7x7, partner max 1 µM) | -0.0224 | 0.0419 | -0.0544 | -0.0657 | -0.033 | -0.0211 | -0.0781 | -0.0267 | -0.0622 | -0.0569 | -0.0533 | -0.0193 | -0.0196 | -0.0835 | -0.0232 | -0.0378 | 0.0124 | 0.0078 | -0.0706 | –
7 | NC1(C(=O)N[C@@H](CCO)c2ccc(Cl)cc2)CCN(c2ncnc3[nH]ccc23)CC1 [Capivasertib] + COc1nnc2ccc(N3CCC(c4ccc(OCCN5CCN(C)C(=O)[C@H]5C)cc4)CC3)nn12 [AZD5153] (first compound max 10 µM, 7x7, partner max 1 µM) | 0.0406 | -0.0197 | 0.0304 | 0.0437 | -0.0045 | -0.0156 | -0.0039 | -0.0171 | 0.0208 | -0.0193 | -0.0305 | 0.0529 | -0.042 | -0.0391 | 0.011 | 0.019 | 0.0957 | -0.0281 | 0.014 | –
8 | NC1(C(=O)N[C@@H](CCO)c2ccc(Cl)cc2)CCN(c2ncnc3[nH]ccc23)CC1 [Capivasertib] + Cn1cnc2c(F)c(Nc3ccc(Br)cc3Cl)c(C(=O)NOCCO)cc21 [Selumetinib] (first compound max 10 µM, 7x7, partner max 10 µM) | -0.0097 | 0.0097 | 0.0288 | 0.0521 | -0.0081 | 0.0124 | 0.0079 | -0.0106 | -0.0595 | -0.0629 | 0.0604 | 0.0312 | -0.0187 | -0.0465 | 0.0367 | -0.0198 | 0.0176 | 0.0736 | -0.0212 | –
9 | Cn1cnc2c(F)c(Nc3ccc(Br)cc3Cl)c(C(=O)NOCCO)cc21 [Selumetinib] + C[C@@H]1COCCN1C2=NC(=NC(=C2)C3(CC3)[S@](=N)(=O)C)C4=C5C=CNC5=NC=C4 [AZD6738] (first compound max 10 µM, 7x7, partner max 10 µM) | -0.0327 | -0.0239 | -0.0228 | 0.0274 | 0.0147 | 0.0756 | -0.0083 | -0.0145 | -0.0532 | -0.0424 | -0.0157 | 0.0072 | 0.002 | 0.0287 | 0.102 | -0.0686 | 0.0209 | – | -0.0238 | –
10 | CC(=O)c1c(C)c2cnc(Nc3ccc(N4CCNCC4)cn3)nc2n(C2CCCC2)c1=O [Palbociclib] + CC1(C)CCC(CN2CCN(c3ccc(C(=O)NS(=O)(=O)c4ccc(NCC5CCOCC5)c([N+](=O)[O-])c4)c(Oc4cnc5[nH]ccc5c4)c3)CC2)=C(c2ccc(Cl)cc2)C1 [Venetoclax] (first compound max 10 µM, 7x7, partner max 1 µM) | -0.0216 | -0.0365 | -0.0405 | -0.0511 | -0.019 | -0.0152 | -0.008 | -0.0734 | -0.0429 | -0.0531 | -0.0674 | -0.0513 | 0.017 | -0.103 | 0.0199 | -0.0624 | 0.0055 | -0.0241 | -0.0306 | –
11 | Cc1nc(Nc2ncc(C(=O)Nc3c(C)cccc3Cl)s2)cc(N2CCN(CCO)CC2)n1 [Dasatinib] + CC(=O)Nc1cccc(-n2c(=O)n(C3CC3)c(=O)c3c(Nc4ccc(I)cc4F)n(C)c(=O)c(C)c32)c1 [Trametinib] (first compound max 2 µM, 7x7, partner max 1 µM) | -0.0727 | -0.0513 | -0.0056 | -0.0622 | 0.0044 | 0.0385 | -0.0031 | -0.0721 | -0.0363 | -0.075 | 0.0193 | 0.119 | -0.0238 | -0.0267 | -0.159 | -0.048 | -0.017 | -0.0521 | 0.0279 | –
12 | NC1(C(=O)N[C@@H](CCO)c2ccc(Cl)cc2)CCN(c2ncnc3[nH]ccc23)CC1 [Capivasertib] + CC(=O)c1c(C)c2cnc(Nc3ccc(N4CCNCC4)cn3)nc2n(C2CCCC2)c1=O [Palbociclib] (first compound max 10 µM, 7x7, partner max 10 µM) | -0.0554 | 0.0247 | -0.0165 | 0.0199 | -0.0163 | 0.014 | -0.0279 | -0.045 | -0.0781 | -0.0463 | -0.0423 | 0.043 | -0.0032 | -0.044 | -0.0549 | -0.0632 | 0.0262 | -0.0075 | -0.0461 | –
13 | Cc1c2c(nn1C)CSCc1cc(n(C)n1)CSc1cc(c3ccccc3c1)OCCCc1c(C(=O)O)n(C)c3c-2c(Cl)ccc13 [AZD5991] + CCN(CCO)CCCOc1ccc2c(Nc3cc(CC(=O)Nc4cccc(F)c4)[nH]n3)ncnc2c1 [AZD2811] (first compound max 1 µM, 7x7, partner max 1 µM) | 0.0256 | 0.041 | 0.0145 | 0.045 | -0.0303 | 0.0141 | -0.0018 | 0.0439 | 0.0432 | 0.0018 | – | -0.0403 | -0.0133 | -0.007 | -0.0319 | 0.0092 | 0.112 | -0.0025 | -0.0204 | -0.0167
14 | COc1nnc2ccc(N3CCC(c4ccc(OCCN5CCN(C)C(=O)[C@H]5C)cc4)CC3)nn12 [AZD5153] + Cc1c2c(nn1C)CSCc1cc(n(C)n1)CSc1cc(c3ccccc3c1)OCCCc1c(C(=O)O)n(C)c3c-2c(Cl)ccc13 [AZD5991] (first compound max 1 µM, 7x7, partner max 1 µM) | -0.0218 | 0.0103 | 0.0144 | 0.0001 | -0.0534 | -0.0374 | -0.0396 | -0.0628 | 0.0475 | -0.048 | -0.0409 | -0.0242 | -0.0442 | -0.128 | -0.0168 | -0.0507 | 0.0291 | – | -0.0922 | –
15 | CS(=O)(=O)CCNCc1ccc(-c2ccc3ncnc(Nc4ccc(OCc5cccc(F)c5)c(Cl)c4)c3c2)o1 [Lapatinib] + C[C@@H](Oc1cc(-c2cnn(C3CCNCC3)c2)cnc1N)c1c(Cl)ccc(F)c1Cl [Crizotinib] (first compound max 10 µM, 7x7, partner max 10 µM) | -0.0917 | -0.0569 | -0.0418 | -0.0183 | -0.0937 | -0.0681 | -0.0801 | -0.0365 | -0.0398 | -0.0268 | -0.0624 | -0.03 | -0.0413 | 0.0324 | -0.0345 | -0.0303 | -0.0029 | -0.0582 | -0.169 | –
